Patent publication US8063012B2, “Neuroprotective peptide inhibitors of AP-1 signaling and uses therefor” (Phylogica Limited, priority 2006, dated 2011)
Non-standard residues stand in square brackets, D forms with d. Residues, ends and D or L forms follow the SMILES beside them.

Columns and labels:
[1] = system: primary cortical neuronal cultures; assay: Glutamate excitotoxicity in primary cortical neuronal cultures, neuronal viability by MTS assay; assay type: cell-based, rat; conditions: for neuroprotection compared with JNKI-1D-TAT: 1 μM concentration
Method: Neurons were resuspended in Neurobasal (NB; Invitrogen) containing 2% B27 supplement (B27; Invitrogen). Before seeding, culture vessels comprising either a 96-well plastic plate or 24-well plastic plate with 13 mm glass coverslips (ProSciTech, Australia), were coated with poly-D-lysine (50 μg/mL; 70-150K; Sigma) and incubated overnight at room temperature. […] Neurons were plated to obtain approximately 10,000 viable neurons for each well of a 96-well plate, or 200,000 viable neurons per well of a 24-well plate, on day in vitro (DIV) […]. […] On DIV 4, one third of the culture medium was removed and replaced with fresh NB/2% B27 containing the mitotic inhibitor, cytosine arabinofuranoside (Sigma) at 1 μM concentration. On DIV 8, one half of the culture medium was replaced with NB/2% B27.
(§1) To induce glutamate excitotoxicity in the cortical neuronal cultures (96-well plate format), 50 μl of conditioned media containing 200 μM glutamate was added to culture wells containing 50 μl conditioned media (100 μM final glutamate concentration). Cultures were incubated at 37° C. in a CO2 incubator for 5 minutes, after which time the media was replaced with 100 μl of 50% NB/2% N2 and 50% balance salt solution (NB/N2:BSS).
Untreated and glutamate-treated control samples received media additions with and without glutamate respectively.
(§2) Eighteen hours after glutamate exposure, neuronal cultures were examined by light microscopy for qualitative assessment of neuronal damage. Neuronal viability was quantitatively measured by 3-(4,5,dimethyliazol-2-yl)-5-(3-carboxymethoxy-phenyl)-2-(4-sulfophenyl)-2H-tetrazolium salt (MTS) assay (Promega, Australia). The MTS assay measures the mitochondrial conversion of the tetrazolium salt to a water-soluble brown formazan salt, which is detected spectrophotometrically at 495 nm. MTS absorbance data was converted to reflect proportional cell viability relative to both the untreated and glutamate treated controls. […] All assays were performed with quadruplicate sister neuronal cultures repeated a minimum of four times independently.

[2] = system: primary cortical neuronal cultures; assay: Light microscopy assessment of neuronal damage after glutamate exposure; assay type: cell-based, rat; conditions: for neuronal morphology (cellular rounding, survival) after glutamate exposure: light microscopy, one hour to 18 hours post glutamate exposure; for neurons that appeared intact and viable: Sprague-Dawley, rat, 18 hours
Method: Cortical neuronal cultures were established as described by Meloni et al., Neuroscience 108, 17-26, 2001. Briefly, cortical tissue from E18-E19 Sprague-Dawley rats was dissociated in Dulbelcco's Modified Eagle Medium (DMEM; Invitrogen, Australia) supplemented with 1.3 mM L-cysteine, 0.9 mM NaHCO3, 10 units/ml papain (Sigma, USA) and 50 units/ml DNase (Sigma) and washed in cold DMEM/10% (v/v) horse serum. Neurons were resuspended in Neurobasal (NB; Invitrogen) containing 2% B27 supplement (B27; Invitrogen). Before seeding, culture vessels comprising either a 96-well plastic plate or 24-well plastic plate with 13 mm glass coverslips (ProSciTech, Australia), were coated with poly-D-lysine (50 μg/mL; 70-150K; Sigma) and incubated overnight at room temperature. The poly-D-lysine was removed and replaced with NB (containing 2% B27; 4% fetal bovine serum; 1% horse serum; 62.5 μM glutamate; 25 μM 2-mercaptoethanol; and 30 μg/mL streptomycin and 30 μg/mL penicillin). Neurons were plated to obtain approximately 10,000 viable neurons for each well of a 96-well plate, or 200,000 viable neurons per well of a 24-well plate, on day in vitro (DIV) […]. Neuronal cultures were maintained in a CO2 incubator (5% CO2, 95% air balance, 98% humidity) at 37° C. On DIV 4, one third of the culture medium was removed and replaced with fresh NB/2% B27 containing the mitotic inhibitor, cytosine arabinofuranoside (Sigma) at 1 μM concentration. On DIV 8, one half of the culture medium was replaced with NB/2% B27. Cultures were used on DIV 11 or 12, and consisted of >95% neurons.
as §1, §2

[3] = Sprague-Dawley, rat, 18 h, 5 μM
[4] = 2 μM extracellular concentration

SMILES | neuronal morphology (cellular rounding, survival) after glutamate exposure [2] | neuroprotection compared with JNKI-1D-TAT [1] | neuronal viability following glutamate excitotoxicity [1, 3] | neurons that appeared intact and viable [2] | neuroprotection following glutamate excitotoxicity [1, 4] | also measured
CC(C)C[C@@H](NC(=O)[C@@H](Cc1ccccc1)NC(=O)[C@H]1CCCN1C(=O)[C@@H](CCC(N)=O)NC(=O)[C@H](NC(=O)[C@H]1CCCN1C(=O)[C@@H](CCCNC(=N)N)NC(=O)[C@@H](CO)NC(=O)[C@@H](CCC(N)=O)NC(=O)[C@@H](CC(=O)O)NC(=O)[C@H](N)[C@H](C)O)C(C)C)C(=O)N[C@H](CC(N)=O)C(=O)N[C@H](CC(C)C)C(=O)N[C@@H](C(=O)N[C@@H](C(=O)N1CCC[C@@H]1C(=O)N[C@H](CCCNC(=N)N)C(=O)N[C@H](CCCCN)C(=O)N1CCC[C@@H]1C(=O)N[C@H](CCCNC(=N)N)C(=O)N1CCC[C@@H]1C(=O)N1CCC[C@@H]1C(=O)N[C@H](CCCNC(=N)N)C(=O)N[C@H](CCCNC(=N)N)C(=O)N[C@H](CCCNC(=N)N)C(=O)N[C@H](CCC(N)=O)C(=O)N[C@H](CCCNC(=N)N)C(=O)N[C@H](CCCNC(=N)N)C(=O)N[C@H](CCCCN)C(=O)N[C@H](CCCCN)C(=O)N[C@H](CCCNC(=N)N)C(=O)NCC(=O)O)[C@H](C)O)[C@H](C)O [JNK1-1D-TAT, reference compound] | did not begin to round and survived glutamate excitotoxicity |  |  |  |  | neuronal viability following glutamate excitotoxicity ([1]; 5 μM extracellular peptide, 100 μM glutamate 5 min, MTS 18 h, no insult = 100%, listed as JNKI-1 D-TAT): 75%; neuronal viability following glutamate excitotoxicity ([1]; 5 μM extracellular peptide, 100 μM glutamate 5 min, MTS 18 h, no insult = 100%, listed as JNKI-1D-TAT): 89%; extracellular concentration providing significant neuroprotection ([1]; glutamate excitotoxicity, dose response 0.1-10 μM): ≥ 2 µM; concentrations at which significant neuroprotection is exhibited ([1]; glutamate excitotoxicity, p<0.0077): micromolar concentrations
CC[C@@H](C)[C@@H](NC(=O)[C@H](N)Cc1ccc(O)cc1)C(=O)N[C@H](Cc1ccc(O)cc1)C(=O)N1CCC[C@@H]1C(=O)N[C@H](Cc1ccc(O)cc1)C(=O)N[C@H](C)C(=O)N[C@H](Cc1ccc(O)cc1)C(=O)N[C@H](CO)C(=O)N[C@H](CCC(N)=O)C(=O)N[C@H](CC(N)=O)C(=O)N[C@@H](C(=O)N[C@H](CC(C)C)C(=O)NCC(=O)N[C@H](CCCNC(=N)N)C(=O)N[C@H](CCCNC(=N)N)C(=O)N[C@H](CCCNC(=N)N)C(=O)N[C@H](CCC(N)=O)C(=O)N[C@H](CCCNC(=N)N)C(=O)N[C@H](CCCNC(=N)N)C(=O)N[C@H](CCCCN)C(=O)N[C@H](CCCCN)C(=O)N[C@H](CCCNC(=N)N)C(=O)NCC(=O)O)[C@H](C)CC [PYC19D-TAT] |  | greater neuroprotection than JNKI-1D-TAT | 68% |  |  | neuroprotection following glutamate excitotoxicity ([1]; 1 μM extracellular concentration): significant neuroprotection; neuroprotection of D-isoform compared with L-isoform ([1]; concentrations higher than 1 μM): clearly provides enhanced neuroprotection
CC[C@@H](C)[C@@H](NC(=O)[C@@H](CCC(=O)O)NC(=O)[C@@H](CO)NC(=O)[C@@H](CO)NC(=O)[C@@H](CO)NC(=O)[C@@H](CCCCN)NC(=O)[C@@H](CCCNC(=N)N)NC(=O)[C@@H](CCC(=O)O)NC(=O)[C@H](N)CCCNC(=N)N)C(=O)NCC(=O)NCC(=O)N[C@H](CO)C(=O)N[C@H](CCCNC(=N)N)C(=O)N[C@@H](C(=O)N[C@H](CO)C(=O)N[C@H](CCC(N)=O)C(=O)N[C@H](Cc1ccc(O)cc1)C(=O)N[C@H](C)C(=O)NCC(=O)O)[C@H](C)CC [PYC35D, Arg Glu Arg Lys Ser Ser Ser Glu Ile Gly Gly Ser Arg Ile Ser Gln Tyr Ala Gly] (H-[dR][dE][dR][dK][dS][dS][dS][dE][dI]GG[dS][dR][dI][dS][dQ][dY][dA]G-OH; N-terminus and C-terminus assumed) | displayed cellular rounding |  |  | 2-5% |  | 
CC[C@@H](C)[C@@H](NC(=O)[C@@H](CCCCN)NC(=O)[C@H]1CCCN1)C(=O)N[C@H](CO)C(=O)N[C@H](CCC(N)=O)C(=O)N[C@H](Cc1ccc(O)cc1)C(=O)NCC(=O)N[C@H](CCC(N)=O)C(=O)N[C@H](CCCNC(=N)N)C(=O)N[C@H](CCCNC(=N)N)C(=O)N[C@H](CCCNC(=N)N)C(=O)NCC(=O)N[C@H](CCC(N)=O)C(=O)N[C@H](CC(C)C)C(=O)NCC(=O)O [PYC36D, Pro Lys Ile Ser Gln Tyr Gly Gln Arg Arg Arg Gly Gln Leu Gly] (H-[dP][dK][dI][dS][dQ][dY]G[dQ][dR][dR][dR]G[dQ][dL]G-OH; N-terminus and C-terminus assumed) | displayed cellular rounding |  |  | 2-5% |  | 
CC(C)C[C@@H](NC(=O)[C@H]1CCCN1C(=O)[C@@H](C)NC(=O)[C@@H](Cc1c[nH]cn1)NC(=O)[C@H](N)CCCNC(=N)N)C(=O)N[C@H](C)C(=O)N[C@H](CCCNC(=N)N)C(=O)NCC(=O)N[C@H](CO)C(=O)N[C@H](Cc1c[nH]c2ccccc12)C(=O)N[C@H](CCCNC(=N)N)C(=O)NCC(=O)N[C@H](CCC(N)=O)C(=O)N1CCC[C@@H]1C(=O)N[C@H](CCC(N)=O)C(=O)N[C@H](CCC(N)=O)C(=O)NCC(=O)N1CCC[C@@H]1C(=O)N[C@H](CCC(N)=O)C(=O)N[C@H](CCCNC(=N)N)C(=O)N[C@H](CCCNC(=N)N)C(=O)NCC(=O)N[C@H](CCC(N)=O)C(=O)N[C@H](CC(C)C)C(=O)NCC(=O)NCC(=O)N[C@H](CCCNC(=N)N)C(=O)N[C@H](CCCNC(=N)N)C(=O)N[C@H](CCCNC(=N)N)C(=O)N[C@H](CCC(N)=O)C(=O)N[C@H](CCCNC(=N)N)C(=O)N[C@H](CCCNC(=N)N)C(=O)N[C@H](CCCCN)C(=O)N[C@H](CCCCN)C(=O)N[C@H](CCCNC(=N)N)C(=O)NCC(=O)O [PYC38/39D-TAT] (H-[dR][dH][dA][dP][dL][dA][dR]G[dS][dW][dR]G[dQ][dP][dQ][dQ]G[dP][dQ][dR][dR]G[dQ][dL]GG[dR][dR][dR][dQ][dR][dR][dK][dK][dR]G-OH; N-terminus and C-terminus assumed) |  | greater neuroprotection than JNKI-1D-TAT | 83% |  | initial significant neuroprotection | 
CC[C@@H](C)[C@@H](NC(=O)[C@@H](CC(N)=O)NC(=O)[C@@H](CCC(N)=O)NC(=O)[C@@H](CCC(=O)O)NC(=O)[C@@H](Cc1c[nH]cn1)NC(=O)[C@@H](Cc1c[nH]cn1)NC(=O)[C@@H](CCCNC(=N)N)NC(=O)[C@@H](CC(C)C)NC(=O)[C@@H](CC(C)C)NC(=O)[C@H]1CCCN1C(=O)[C@H](N)CC(C)C)C(=O)N[C@H](CO)C(=O)N[C@@H](C(=O)NCC(=O)N[C@H](CCCNC(=N)N)C(=O)N[C@H](CCCNC(=N)N)C(=O)N[C@H](CCCNC(=N)N)C(=O)N[C@H](CCC(N)=O)C(=O)N[C@H](CCCNC(=N)N)C(=O)N[C@H](CCCNC(=N)N)C(=O)N[C@H](CCCCN)C(=O)N[C@H](CCCCN)C(=O)N[C@H](CCCNC(=N)N)C(=O)NCC(=O)O)C(C)C [PYC41D-TAT] |  |  | 40% |  | initial significant neuroprotection | 
